Test results as given in patent US11219658B2, “Composition for preventing or treating diseases caused by caffeine abuse including Evodia officinalis extract or evodiamine as active ingredient” (priority 2016, dated 2022).
Marks after values point to notes of the source that are not given here.

Experiments:
[1] = system: mouse model having motor activity increased by central nervous system stimulation due to caffeine abuse; experiment: Caffeine-induced central nervous system stimulation, motor activity in motor ability measurement box; type: in vivo, ICR male mice; conditions: for excitatory motor activity time (center time), percentage of maintenance in the center of the box: solvent control 3%; for excitatory motor activity count (center count), percentage of movement in the center of the box: solvent control 16%; for total movement of excitatory motor activity: solvent control 7,107 cm
Description: (§1) 4-week-old ICR male mice (20 to 22 g) were provided from Koatech (Pyeongtaek, Korea), acclimated by breeding for 1 week or more in an animal breeding room in the School of Pharmacy at Sungkyunkwan University, and freely fed water and feed. The temperature (23±2° C.), humidity (55±10%) and a dark/light cycle (12 hrs) were automatically controlled.
To measure an inhibitory effect of evodiamine on caffeine-induced central nervous system stimulation, the mice prepared in Example 2 were divided into four groups of 12 mice, and treated with evodiamine and caffeine in a different manner. The first group was a group treated with distilled water containing 10% DMSO (control), the second group was a group treated with 10% DMSO-containing distilled water and 10 mg/kg of caffeine, the third group was a group treated with 10 mg/kg of evodiamine and 10 mg/kg of caffeine, and the fourth group was a group treated with 20 mg/kg of evodiamine and 10 mg/kg of caffeine.
Evodiamine was dissolved in 10% DMSO-containing distilled water, and orally administered to mice at doses of 0, 10 and 20 mg/kg, and 30 minutes later, intraperitoneally injected with caffeine 10 mg/kg of caffeine. Then, after 30 minutes, the mice were put into a motor ability measurement box (diameter: 30×30×30 (cm)), and measured for a total of 60 minutes using a video measurement and analysis system (Neurovision, Busan, Korea), followed by conversion of the improvement or inhibition in an increased excitatory motor activity count (center count), excitatory motor activity time (center time) and total movement of excitatory motor activity (total movement) to percentage (%).

[2] = system: mouse model having somnipathy caused by caffeine abuse; experiment: Caffeine-induced somnipathy, Entobar (pentobarbital)-induced sleep onset and sleep duration; type: in vivo, ICR male mice; conditions: for Change in sleep onset (% of Control) / Change in total sleep duration (% of Control): vehicle control = 100
Description: as §1
Specifically, the first group was a group treated with 10% DMSO-containing distilled water and 40 mg/kg of Entobar® as a control, the second group was a group treated with 10% DMSO-containing distilled water, 50 mg/kg of caffeine and 40 mg/kg of Entobar®, the third group was a group treated with 200 mg/kg of the Evodia officinalis extract, 50 mg/kg of caffeine and 40 mg/kg of Entobar®, and the fourth group was a group treated with 400 mg/kg of the Evodia officinalis extract, 50 mg/kg of caffeine and 40 mg/kg of Entobar®.
Regarding the administration method, the Evodia officinalis extract was dissolved in 10% DMSO-containing distilled water, orally administered to the mice at doses of 0, 200 and 400 mg/kg once a day for three days, and 30 minutes after the final administration. 50 mg/kg of caffeine was intraperitoneally injected into the mice. Thirty minutes after the caffeine injection, 40 mg/kg of Entobar® was intraperitoneally injected to induce sleep. Immediately after the Entobar® injection, the mice were put into each cage, and then sleep onset and sleep duration were measured.
To compare caffeine-induced somnipathy-improving effects of the Evodia officinalis extract and evodiamine, the Evodia officinalis hot water extract prepared in Example 3, ethanol extract thereof and evodiamine were orally administered to the mice prepared in Example 2 once a day for 3 days. 30 minutes after the final administration, 50 mg/kg of caffeine was intraperitoneally injected into the mice. After thirty minutes. 40 mg/kg of Entobar® was intraperitoneally injected to induce sleep, followed by measuring sleep onset and total sleep duration.

[3] = evodiamine 5 mg/kg p.o. once a day for 3 days + caffeine 50 mg/kg i.p. + Entobar 40 mg/kg i.p.
[4] = evodiamine 10 mg/kg p.o. once a day for 3 days + caffeine 50 mg/kg i.p. + Entobar 40 mg/kg i.p.
[5] = caffeine 50 mg/kg i.p. alone + Entobar 40 mg/kg i.p.

Compound | excitatory motor activity time (center time), percentage of maintenance in the center of the box ([1]; evodiamine 10 mg/kg p.o. + caffeine 10 mg/kg i.p., caffeine control 9%) [%] | excitatory motor activity count (center count), percentage of movement in the center of the box ([1]; evodiamine 10 mg/kg p.o. + caffeine 10 mg/kg i.p., caffeine control 23%) [%] | total movement of excitatory motor activity ([1]; evodiamine 10 mg/kg p.o. + caffeine 10 mg/kg i.p., caffeine control 15,078 cm) | excitatory motor activity time (center time), percentage of maintenance in the center of the box ([1]; evodiamine 20 mg/kg p.o. + caffeine 10 mg/kg i.p., caffeine control 9%) [%] | excitatory motor activity count (center count), percentage of movement in the center of the box ([1]; evodiamine 20 mg/kg p.o. + caffeine 10 mg/kg i.p., caffeine control 23%) [%] | total movement of excitatory motor activity ([1]; evodiamine 20 mg/kg p.o. + caffeine 10 mg/kg i.p., caffeine control 15,078 cm) | Change in sleep onset (% of Control) [2, 3] | Change in total sleep duration (% of Control) [2, 3] | Change in sleep onset (% of Control) [2, 4] | Change in total sleep duration (% of Control) [2, 4] | excitatory motor activity count (center count), percentage of movement in the center of the box ([1]; caffeine 10 mg/kg i.p. alone (10% DMSO vehicle p.o.), 60 min measurement) [%] | excitatory motor activity time (center time), percentage of maintenance in the center of the box ([1]; caffeine 10 mg/kg i.p. alone) [%] | total movement of excitatory motor activity ([1]; caffeine 10 mg/kg i.p. alone) | sleep onset ([2]; caffeine 50 mg/kg i.p. + Entobar 40 mg/kg i.p., control without caffeine 219 seconds) [s] | sleep duration ([2]; caffeine 50 mg/kg i.p. + Entobar 40 mg/kg i.p., control without caffeine 2,940 seconds) | Change in sleep onset (% of Control) [2, 5] | Change in total sleep duration (% of Control) [2, 5]
CN1c2ccccc2C(=O)N2CCc3c([nH]c4ccccc34)C21 (centres unmarked) [evodiamine] | 7 | 20 | 12,734 cm | 5 | 19 | 10,910 cm | 138.7 % of Control | 100.5 # % of Control | 108.2 # % of Control | 94.0 % of Control |  |  |  |  |  |  | 
Cn1c(=O)c2c(ncn2C)n(C)c1=O [caffeine, 1,3,7-trimethylxanthine] |  |  |  |  |  |  |  |  |  |  | 23 | 9 | 15,078 cm | 371 | 1,812 seconds | 166.8 *** % of Control | 57.4 ** % of Control
